Experimental data published in patent US20140114067A1, “BENZIMIDAZOLE DERIVATIVES AS MITOCHONDRIAL FUNCTION MODULATORS” (KOREA INSTITUTE OF SCIENCE AND TECHNOLOGY, priority 2012, published 2014).

What was measured:
HT-22 cells [1] = assay: Improvement in mitochondrial membrane potential dropped by amyloid beta (JC-1 dye); format: cell-based; details: compound 5 μM, amyloid beta 5 μM, 3 hours, JC-1 green:red ratio, amyloid beta damage = 0%, normal = 100%
Procedure: (§1) Meanwhile, the compound represented by Formula 1 according to the present invention is evaluated through a test to determine recovery of mitochondrial functions damaged by amyloid beta, as described in the following Test Example. After the test, the results are shown in terms of the percentages of mitochondrial function disorder caused by amyloid beta. The degree of mitochondrial function disorder caused by amyloid beta is taken as 0% and the normal condition in the absence of amyloid beta is shown as 100%.
To a transparent 96-well plate, HT-22 cells are inoculated in a number of 30,000 per well one day before the test. On the next day, JC-1 dye (Stratagen, USA) is diluted with Opti-MEM containing no phenol red to a concentration of 7.5 μM, and the resultant dilution is used to treat the cells for 1 hour and 15 minutes. The dyed cells are washed twice with phosphate buffer solution (PBS), followed by treatment with each compound to a final concentration of 5 μM per well. Then, the cells are cultured at 37° C. for 10 minutes. Particularly, for each drug, two wells are treated with amyloid beta (5 μM) and the other two wells are treated with the vehicle control (5 μM DMSO). Then, the cells are cultured at 37° C. for 3 hours. The fluorescence intensity of each well is read by using a fluorescence plate reader at 485/535 nm (green/J-monomer) and 560/595 nm (red/J-aggregate). Then, the ratio of green:red is calculated and the results are normalized by taking the change of the ratio between addition of amyloid beta and no-addition of amyloid beta in the vehicle control non-treated with drugs as 100%.

HT-22 cells [2] = assay: Recovery of ATP production capability reduced by amyloid beta (luciferin/luciferase); format: cell-based; details: compound 5 μM, amyloid beta 5 μM, 7 hours, amyloid beta vehicle control without drug = 0%
Procedure: as §1
To a transparent 96-well plate, HT-22 cells are inoculated in a number of 10,000 per well one day before the test, followed by treatment with each compound to a final concentration of 5 μM per well. The cells are cultured at 37° C. for 10 minutes. Particularly, for each drug, two wells are treated with amyloid beta (5 μM) and the other two wells are treated with the vehicle control (5 μM DMSO). After the treatment, the cells are cultured at 37° C. for 7 hours. The cells treated with each drug are washed twice with PBS, lysed with Triton X-100 (1% in TSBT buffer) and agitated at room temperature for 5 minutes. […] is used to determine the protein amount of each well, and the same amount of protein taken from each well is added to a white 96-well plate. Then, […] (Molecular Probe, USA) for ATP determination containing d-luciferin and luciferase is added thereto and emission peaks generated from each of the wells are determined. After the determination, the peaks are normalized by taking the vehicle control to which amyloid beta is added without treatment with any drug as 0%.

Structure (SMILES) | Improvement in Membrane Potential (%) (5 μM) (HT-22 cells [1]) | ATP Production Capability Recovery (%) (5 μM) (HT-22 cells [2])
COc1ccc(OC)c(-c2nc3ccccc3n2CC(=O)Nc2cc(C(C)C)ccc2C)c1 [Compound 1, 2-(2-(2,5-dimethoxyphenyl)-1H-benzo[d]imidazol-1-yl)-N-(5-isopropyl-2-methylphenyl)acetamide] | 41 | –
Cc1ccc(C(C)C)cc1NC(=O)Cn1c(-c2ccccc2)nc2ccccc21 [Compound 4, N-(5-isopropyl-2-methylphenyl)-(2-phenyl-1H-benzo[d]imidazol-1-yl)acetamide] | 91 | –
O=C(Cn1c(-c2cc(Cl)ccc2Cl)nc2ccccc21)Nc1cc(Cl)cc(Cl)c1 [Compound 5, N-(3,5-dichlorophenyl)-2-(2-(2,5-dichlorophenyl)-1H-benzo[d]imidazol-1-yl)acetamide] | 91 | –
Cc1cccc(C(C)(C)C)c1NC(=O)Cn1c(-c2cc(Cl)ccc2Cl)nc2ccccc21 [Compound 7, N-(2-tert-butyl-6-methylphenyl)-2-(2-(2,5-dichlorophenyl)-1H-benzo[d]imidazol-1-yl)acetamide] | 41 | –
Cc1cccc(C(C)(C)C)c1NC(=O)Cn1c(Cc2ccccc2)nc2ccccc21 [Compound 12, 2-(2-benzyl-1H-benzo[d]imidazol-1-yl)-N-(2-tert-butyl-6-methylphenyl)acetamide] | 38 | –
CC(C)(C)c1cc(NC(=O)Cn2c(-c3ccccc3)nc3ccccc32)cc(C(C)(C)C)c1 [Compound 13, N-(3,5-di-tert-butylphenyl)-2-(2-phenyl-1H-benzo[d]imidazol-1-yl)acetamide] | 86 | –
Cc1ccc(C(C)C)cc1NC(=O)Cn1c(-c2ccccc2)nc2ccccc21 [Compound 14, N-(5-isopropyl-2-methylphenyl)-2-(2-phenyl-1H-benzo[d]imidazol-1-yl)acetamide] | 73 | –
O=C(Cn1c(-c2ccccc2)nc2ccccc21)Nc1cc(Cl)cc(Cl)c1 [Compound 15, N-(3,5-dichlorophenyl)-2-(2-phenyl-1H-benzo[d]imidazol-1-yl)acetamide] | 69 | –
Cc1cccc(C(C)(C)C)c1NC(=O)Cn1c(-c2ccccc2)nc2ccccc21 [Compound 16, N-(2-tert-butyl-6-methylphenyl)-2-(2-phenyl-1H-benzo[d]imidazol-1-yl)acetamide] | 65 | 55
COc1ccc(OC)c(Cc2nc3ccccc3n2CC(=O)Nc2cc(C(C)(C)C)cc(C(C)(C)C)c2)c1 [Compound 17, N-(3,5-di-tert-butylphenyl)-2-(2-(2,5-dimethoxybenzyl)-1H-benzo[d]imidazol-1-yl)acetamide] | 54 | 46
COc1ccc(OC)c(Cc2nc3ccccc3n2CC(=O)Nc2cc(Cl)cc(Cl)c2)c1 [Compound 18, N-(3,5-dichlorophenyl)-2-(2-(2,5-dimethoxybenzyl)-1H-benzo[d]imidazol-1-yl)acetamide] | 68 | 94
COc1ccc(OC)c(Cc2nc3ccccc3n2CC(=O)Nc2cc(C(C)C)ccc2C)c1 [Compound 19, 2-(2-(2,5-dimethoxybenzyl)-1H-benzo[d]imidazol-1-yl)-N-(5-isopropyl-2-methylphenyl)acetamide] | 81 | –
Cc1ccc(C(C)C)cc1NC(=O)Cn1c(Cc2ccc(Cl)c(Cl)c2)nc2ccccc21 [Compound 21, 2-(2-(3,4-dichlorobenzyl)-1H-benzo[d]imidazol-1-yl)-N-(5-isopropyl-2-methylphenyl)acetamide] | 57 | –
Cc1ccc(C(C)C)cc1NC(=O)Cn1c(Cc2c(Cl)cccc2Cl)nc2ccccc21 [Compound 23, 2-(2-(2,6-dichlorobenzyl)-1H-benzo[d]imidazol-1-yl)-N-(5-isopropyl-2-methylphenyl)acetamide] | 74 | 95
CC(C)(C)c1cc(NC(=O)Cn2c(Cc3ccc(Cl)c(Cl)c3)nc3ccccc32)cc(C(C)(C)C)c1 [Compound 24, N-(3,5-di-tert-butylphenyl)-2-(2-(3,4-dichlorobenzyl)-1H-benzo[d]imidazol-1-yl)acetamide] | 42 | –
Cc1ccc(C(C)C)cc1NC(=O)Cn1c(-c2cc(Cl)ccc2Cl)nc2cc(Cl)ccc21 [Compound 26, 2-(5-chloro-2-(2,5-dichlorophenyl)-1H-benzo[d]imidazol-1-yl)-N-(5-isopropyl-2-methylphenyl)acetamide] | 60 | –
O=C(Cn1c(-c2cc(Cl)ccc2Cl)nc2cc(Cl)ccc21)Nc1cc(Cl)cc(Cl)c1 [Compound 27, 2-(5-chloro-2-(2,5-dichlorophenyl)-1H-benzo[d]imidazol-1-yl)-N-(3,5-dichlorophenyl)acetamide] | 77 | –
CN1CCC(NC(=O)c2ccc(Cn3c(Cc4c(Cl)cccc4Cl)nc4ccccc43)cc2)CC1 [Compound 33, 4-((2-(2,6-dichlorobenzyl)-1H-benzo[d]imidazol-1-yl)methyl)-N-(1-methylpiperidin-4-yl)benzamide] | 81 | –
O=C(NCCCN1CCCC1)c1ccc(Cn2c(Cc3c(Cl)cccc3Cl)nc3ccccc32)cc1 [Compound 35, 4-((2-(2,6-dichlorobenzyl)-1H-benzo[d]imidazol-1-yl)methyl)-N-(3-(pyrrolidin-1-yl)propyl)benzamide] | 79 | –
CN1CCN(CCCNC(=O)c2ccc(Cn3c(Cc4c(Cl)cccc4Cl)nc4ccccc43)cc2)CC1 [Compound 36, 4-((2-(2,6-dichlorobenzyl)-1H-benzo[d]imidazol-1-yl)methyl)-N-(3-(4-methylpiperazin-1-yl)propyl)benzamide] | 86 | –
O=C(NCCN1CCCCC1)c1ccc(Cn2c(Cc3c(Cl)cccc3Cl)nc3ccccc32)cc1 [Compound 38, 4-((2-(2,6-dichlorobenzyl)-1H-benzo[d]imidazol-1-yl)methyl)-N-(3-(piperidin-1-yl)ethyl)benzamide] | 89 | –
O=C(NCCCN1CCOCC1)c1ccc(Cn2c(Cc3c(Cl)cccc3Cl)nc3ccccc32)cc1 [Compound 39, 4-((2-(2,6-dichlorobenzyl)-1H-benzo[d]imidazol-1-yl)methyl)-N-(3-morpholinopropyl)benzamide] | 76 | –
CCN1CCCC1CNC(=O)c1ccc(Cn2c(CC(=O)Nc3cc(C(C)C)ccc3C)nc3ccccc32)cc1 (stereo not drawn) [Compound 41, N-((1-ethylpyrrolidin-2-yl)methyl)-4-((2-(2-(5-isopropyl-2-methylphenylamino)-2-oxoethyl)-1H-benzo[d]imidazol-1-yl)methyl)benzamide] | 68 | –
Cc1ccc(C(C)C)cc1NC(=O)Cc1nc2ccccc2n1Cc1ccc(C(=O)NCCCN(C)C)cc1 [Compound 42, N-(3-(dimethylamino)propyl)-4-((2-(2-(5-isopropyl-2-methylphenylamino)2-oxoethyl)-1H-benzo[d]imidazol-1-yl)methyl)benzamide] | 68 | –
CCN1CCCC1CNC(=O)c1ccc(CSc2nc3ccccc3n2CC(=O)Nc2cc(C(C)C)ccc2C)cc1 (stereo not drawn) [Compound 43, N-((1-ethylpyrrolidin-2-yl)methyl)-4-((1-(2-(5-isopropyl-2-methylphenylamino)2-oxoethyl)-1H-benzo[d]imidazol-2-ylthio)methyl)benzamide] | 70 | –
Cc1ccc(C(C)C)cc1NC(=O)Cc1nc2ccccc2n1Cc1ccc(C(=O)NCCCN2CCCCC2)cc1 [Compound 44] | 80 | –
Cc1ccc(C(C)C)cc1NC(=O)Cn1c(SCc2ccc(C(=O)NCCCN(C)C)cc2)nc2ccccc21 [Compound 45, N-(3-(dimethylamino)propyl)-4-((1-(2-(5-isopropyl-2-methylphenylamino)-2-oxoethyl)-1H-benzo[d]imidazol-2-ylthio)methyl)benzamide] | 59 | –
Cc1ccc(C(C)C)cc1NC(=O)Cn1c(SCc2ccc(C(=O)NCCCN3CCCCC3)cc2)nc2ccccc21 [Compound 46] | 67 | –
CN(C)C(=O)c1ccc(Cn2c(Cc3c(Cl)cccc3Cl)nc3ccccc32)cc1 [Compound 47, 4-((2-(2,6-dichlorobenzyl)-1H-benzo[d]imidazol-1-yl)methyl)-N,N-dimethylbenzamide] | 73 | –
